In US10131652B2, “Pyrimidinyloxy benzene derivatives as herbicides” (E. I. DU PONT DE NEMOURS AND COMPANY, priority 2014, dated 2018):

How the values were obtained:
Assay type in all cases: in vivo
[1] = system: galium (catchweed bedstraw, Galium aparine); assay: Test B postemergence plant response
Summary of the method: (§1)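 Weeds grown in loam soil/sand pots were sprayed postemergence at 2 to 10 cm height, one- to two-leaf stage. After approximately 10 days in greenhouse, injury was rated visually against untreated controls on a 0 (no effect) to 100 (complete control) scale; dash means no test result.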

[2] = system: blackgrass (Alopecurus myosuroides); assay: Test B postemergence plant response
Summary of the method: as §1

[3] = system: Italian ryegrass (Lolium multiflorum); assay: Test B pre-/postemergence plant response
From the text: (§2) Seeds of plant species selected from bamyardgrass (Echinochloa crus-galli), kochia (Kochia scoparia), ragweed (common ragweed, Ambrosia elatior), Italian ryegrass (Lolium multiflorum), large (Lg) crabgrass (Digitaria sanguinalis), giant foxtail (Setaria faberii), momingglory (Ipomoea spp.), pigweed (Amaranthus retroflexus), velvetleaf (Abutilon theophrasti), wheat (Triticum aestivum), and corn (Zea mays) were planted into a blend of loam soil and sand and treated preemergence with a directed soil spray using test chemicals formulated in a non-phytotoxic solvent mixture which included a surfactant. At the same time, plants selected from these crop and weed species and also blackgrass (Alopecurus myosuroides), and galium (catchweed bedstraw, Galium aparine) were planted in pots containing the same blend of loam soil and sand and treated with postemergence applications of test chemicals formulated in the same manner. Plants ranged in height from 2 to 10 cm and were in the one- to two-leaf stage for the postemergence treatment. Treated plants and untreated controls were maintained in a greenhouse for approximately 10 days, after which time all treated plants were compared to untreated controls and visually evaluated for injury. Plant response ratings, summarized in Table B, are based on a 0 to 100 scale where 0 is no effect and 100 is complete control. A dash (-) response means no test result.

corn (Zea mays) = assay: Test B pre-/postemergence plant response
From the text: as §2

[4] = system: pigweed (Amaranthus retroflexus); assay: Test B pre-/postemergence plant response
From the text: as §2

[5] = system: wheat (Triticum aestivum); assay: Test B pre-/postemergence plant response
From the text: as §2

[6] = system: ragweed (common ragweed, Ambrosia elatior); assay: Test B pre-/postemergence plant response
From the text: as §2

[7] = system: barnyardgrass (Echinochloa crus-galli); assay: Test B pre-/postemergence plant response
From the text: as §2

kochia (Kochia scoparia) = assay: Test B pre-/postemergence plant response
From the text: as §2

[8] = system: giant foxtail (Setaria faberii); assay: Test B pre-/postemergence plant response
From the text: as §2

rice (Oryza sativa) = assay: Test C flooded paddy test plant response; conditions: Flood, 250 g ai/ha; scale of 0 to 100 where 0 is no effect and 100 is complete control; 13 to 15 days
Summary of the method: (§3)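 Plants grown to 2-leaf stage, flooded 3 cm above soil; compounds applied directly into paddy water, depth kept throughout. Visual rating versus controls after 13 to 15 days in greenhouse, 0 (no effect) to 100 (complete control).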

[9] = system: ducksalad (Heteranthera limosa); assay: Test C flooded paddy test plant response; conditions: Flood, 250 g ai/ha; scale of 0 to 100 where 0 is no effect and 100 is complete control; 13 to 15 days
Summary of the method: as §3

[10] = system: barnyardgrass (Echinochloa crus-galli); assay: Test C flooded paddy test plant response; conditions: Flood, 250 g ai/ha; scale of 0 to 100 where 0 is no effect and 100 is complete control; 13 to 15 days
Summary of the method: as §3

[11] = system: small-flower umbrella sedge (Cyperus difformis); assay: Test C flooded paddy test plant response; conditions: Flood, 250 g ai/ha; scale of 0 to 100 where 0 is no effect and 100 is complete control; 13 to 15 days
Summary of the method: as §3

[12] = 125 g ai/ha, postemergence, 0 to 100 scale, 0 no effect, 100 complete control
[13] = Postemergence, 31 g ai/ha, 0 to 100 scale (0 no effect, 100 complete control)
[14] = 31 g ai/ha, Preemergence, 0 to 100 scale where 0 is no effect and 100 is complete control
[15] = Preemergence, 125 g ai/ha, 0 to 100 scale (0 no effect, 100 complete control)
[16] = 31 g ai/ha, Postemergence, 0 to 100 scale, 0 no effect, 100 complete control
[17] = Preemergence, 125 g ai/ha, 0 to 100 scale where 0 is no effect and 100 is complete control

Structure (SMILES) | Plant response rating, Galium [1, 12] | Plant response rating, Blackgrass [2, 12] | Plant response rating, Ryegrass, Italian [3, 14] | Plant response rating, Ryegrass, Italian [3, 12] | Plant response rating, Corn (corn (Zea mays); [12]) | Plant response rating, Pigweed [4, 14] | Plant response rating, Pigweed [4, 12] | Plant response rating, Wheat [5, 12] | Plant response rating, Ragweed [6, 14] | Plant response rating, Ragweed [6, 12] | Plant response rating, Barnyardgrass [7, 14] | Plant response rating, Barnyardgrass [7, 12] | Plant response rating, Kochia (kochia (Kochia scoparia); [14]) | Plant response rating, Kochia (kochia (Kochia scoparia); [12]) | Plant response rating, Foxtail, Giant [8, 14] | Plant response rating, Foxtail, Giant [8, 12] | Rice plant response rating (rice (Oryza sativa)) | Ducksalad plant response rating [9] | Barnyardgrass plant response rating [10] | Sedge, Umbrella plant response rating [11] | also measured
CC(C)(F)c1cc(-c2ccccc2Oc2ncc(Cl)cn2)no1 [Compound 236] | 100 | 40 | 0 | 20 | 30 | 60 | 70 | 20 | 0 | 20 | 10 | 30 | 30 | 90 | 10 | 30 | 0 | 75 | 0 | 40 | Plant response rating, Galium [1, 13]: 30; Plant response rating, Blackgrass [2, 13]: 20; Plant response rating, Ryegrass, Italian [3, 13]: 0; Ryegrass, Italian plant response rating [3, 15]: 30; Plant response rating, Corn (corn (Zea mays); [13]): 0; Plant response rating, Pigweed [4, 13]: 30; Pigweed plant response rating [4, 15]: 100; Plant response rating, Wheat [5, 13]: 0; Plant response rating, Ragweed [6, 13]: 0; Ragweed plant response rating [6, 15]: 0; Plant response rating, Barnyardgrass [7, 13]: 0; Barnyardgrass plant response rating [7, 15]: 80; Plant response rating, Kochia (kochia (Kochia scoparia); [13]): 20; Kochia plant response rating (kochia (Kochia scoparia); [15]): 100; Plant response rating, Foxtail, Giant [8, 13]: 0; Foxtail, Giant plant response rating [8, 15]: 90
Cn1nc(-c2c(C#N)cccc2Oc2ncc(Cl)cn2)cc1C(F)(F)F [Compound 146] | 50 | 30 | 0 | 0 | 0 | 0 | 60 | 0 | 0 | 0 | 0 | 20 | 0 | 60 | 0 | 20 | 0 | 0 | 0 | 0 | Plant response rating, Galium [1, 13]: 30; Plant response rating, Blackgrass [2, 13]: 0; Plant response rating, Ryegrass, Italian [3, 13]: 0; Ryegrass, Italian plant response rating [3, 15]: 0; Plant response rating, Corn (corn (Zea mays); [13]): 0; Plant response rating, Pigweed [4, 13]: 30; Pigweed plant response rating [4, 15]: 70; Plant response rating, Wheat [5, 13]: 0; Plant response rating, Ragweed [6, 13]: 0; Ragweed plant response rating [6, 15]: 0; Plant response rating, Barnyardgrass [7, 13]: 0; Barnyardgrass plant response rating [7, 15]: 30; Plant response rating, Kochia (kochia (Kochia scoparia); [13]): 50; Kochia plant response rating (kochia (Kochia scoparia); [15]): 0; Plant response rating, Foxtail, Giant [8, 13]: 0; Foxtail, Giant plant response rating [8, 15]: 20
Cc1csc(-c2ccccc2Oc2ncc(Cl)cn2)c1 [Compound 216] | 50 | 10 | 0 | 0 | 10 | 0 | 30 | 0 | 0 | 0 | 0 | 10 | 0 | 20 | 0 | 0 | 0 | 0 | 0 | 0 | Plant response rating, Galium [1, 13]: 20; Plant response rating, Blackgrass [2, 13]: 0; Plant response rating, Ryegrass, Italian [3, 13]: 0; Ryegrass, Italian plant response rating [3, 15]: 0; Plant response rating, Corn (corn (Zea mays); [13]): 0; Plant response rating, Pigweed [4, 13]: 10; Pigweed plant response rating [4, 15]: 0; Plant response rating, Wheat [5, 13]: 0; Plant response rating, Ragweed [6, 13]: 0; Ragweed plant response rating [6, 15]: 0; Plant response rating, Barnyardgrass [7, 13]: 10; Barnyardgrass plant response rating [7, 15]: 10; Plant response rating, Kochia (kochia (Kochia scoparia); [13]): 10; Kochia plant response rating (kochia (Kochia scoparia); [15]): 0; Plant response rating, Foxtail, Giant [8, 13]: 0; Foxtail, Giant plant response rating [8, 15]: 0
Cn1ncnc1-c1ccccc1Oc1ncc(Cl)cn1 [Compound 117] | 0 | 0 | 0 | 0 | 0 | 0 | 0 | 0 | 0 | 0 | 0 | 0 | 0 | 0 | 0 | 0 | 0 | 0 | 0 | 0 | Plant response rating, Galium [1, 16]: 0; Plant response rating, Blackgrass [2, 16]: 0; Plant response rating, Ryegrass, Italian [3, 16]: 0; Plant response rating, Corn (corn (Zea mays); [16]): 0; Plant response rating, Pigweed [4, 16]: 0; Plant response rating, Wheat [5, 16]: 0; Plant response rating, Ragweed [6, 16]: 0; Plant response rating, Barnyardgrass [7, 16]: 0; Plant response rating, Barnyardgrass [7, 17]: 0; Plant response rating, Kochia (kochia (Kochia scoparia); [16]): 0; Plant response rating, Kochia (kochia (Kochia scoparia); [17]): 0; Plant response rating, Foxtail, Giant [8, 16]: 0; Plant response rating, Foxtail, Giant [8, 17]: 0
